In brackets after ≈: the same amount, converted by molar mass. Several values for one entry are separate records, joined by “and”; a condition that tells them apart may be missing. Equal entries are not always repeated. Where two headings read alike, the source gives them in different places. Peptide text beside a SMILES is read from it.
Assays:
[1] = test system: S. aureus in patients with atopic dermatitis; assay type: cell-based, Staphylococcus aureus
[2] = test system: S. aureus in control group; assay type: cell-based, Staphylococcus aureus
[3] = test system: Staphylococcus aureus strains isolated from control group
[4] = test system: Staphylococcus aureus strains isolated from atopic dermatitis (AD) patients; test: microbe, parasite or virus in culture; conditions: 18 h
[5] = test system: Staphylococcus aureus strains isolated from control group; test: microbe, parasite or virus in culture; conditions: 18 h
[6] = test system: Superantigen positive Staphylococcus aureus (n = 52); test: microbe, parasite or virus in culture; conditions: 18 h
[7] = test system: Superantigen negative Staphylococcus aureus (n = 48); test: microbe, parasite or virus in culture; conditions: 18 h
[8] = test system: Superantigen positive Staphylococcus aureus (n = 52)
[9] = test system: Superantigen negative Staphylococcus aureus (n = 48)
S. aureus isolates = conditions: cited from earlier work
[10] = test system: Staphylococcus aureus strains isolated from atopic dermatitis (AD) patients
[11] = Superantigen positive (n = 52, 18 h)
[12] = Superantigen negative (n = 48, 18 h)

Row | Compound | Resistance (%), resistant strains [1] | MIC Range [3] | MIC50 [4] | MIC90 [4] | MIC50 [5] | MIC90 [5] | MIC50 [6] | MIC90 [6] | MIC50 [7] | MIC90 [7] | MIC50 [8, 11] | MIC90 [8, 11] | MIC50 [9, 12] | MIC90 [9, 12] | MIC Range [10] | MIC Range [8] | MIC Range [9] | further results
1 | CC1(C)S[C@@H]2[C@H](NC(=O)[C@H](N)c3ccccc3)C(=O)N2[C@H]1C(=O)O [Ampicillin, ampicillin] | 58.5% | 0.25 to 32 µg/mL | 2 µg/mL (≈ 5.72 µM) | 16 µg/mL (≈ 45.8 µM) | 16 µg/mL (≈ 45.8 µM) | 32 µg/mL (≈ 91.6 µM) | 1 µg/mL (≈ 2.86 µM) | 8 µg/mL (≈ 22.9 µM) | 8 µg/mL (≈ 22.9 µM) | 16 µg/mL (≈ 45.8 µM) |  |  |  |  |  |  |  | Resistance (%), resistant strains [2]: 4%
2 | CC[C@H](C)[C@H](NC(=O)[C@H](CCCCN)NC(=O)[C@H](CCCCN)NC(=O)[C@H](Cc1ccccc1)NC(=O)[C@H](CC(C)C)NC(=O)[C@H](CCCCN)NC(=O)[C@H](Cc1c[nH]c2ccccc12)NC(=O)[C@@H](N)CCCCN)C(=O)NCC(=O)N[C@@H](C)C(=O)N[C@H](C(=O)N[C@@H](CC(C)C)C(=O)N[C@@H](CCCCN)C(=O)N[C@H](C(=O)N[C@@H](CC(C)C)C(N)=O)C(C)C)C(C)C [CAMEL] (H-KWKLFKKIGAVLKVL-NH2) |  |  |  |  |  |  |  |  |  |  | 4 µg/mL (≈ 2.26 µM) | 8 µg/mL (≈ 4.52 µM) | 4 µg/mL (≈ 2.26 µM) | 4 µg/mL (≈ 2.26 µM) |  |  |  | MIC Range [8, 11]: 1 to 8 µg/mL; MIC Range [9, 12]: 2 to 128 µg/mL
3 | CC[C@H](C)[C@H](NC(=O)[C@@H](NC(=O)[C@H](CO)NC(=O)[C@H](C)NC(=O)[C@@H](NC(=O)[C@H](CCCCN)NC(=O)[C@H](CCCCN)NC(=O)[C@@H](NC(=O)[C@@H](NC(=O)[C@H](CC(=O)O)NC(=O)[C@H](Cc1ccccc1)NC(=O)[C@H](CC(C)C)NC(=O)CN)C(C)C)[C@@H](C)CC)C(C)C)C(C)C)C(=O)NCC(=O)NCC(=O)N[C@@H](CC(C)C)C(N)=O [Citropin 1.1] (H-GLFDVIKKVASVIGGL-NH2) |  |  |  |  |  |  |  |  |  |  | 16 µg/mL (≈ 9.91 µM) | 16 µg/mL (≈ 9.91 µM) | 16 µg/mL (≈ 9.91 µM) | 32 µg/mL (≈ 19.8 µM) |  |  |  | MIC Range [8, 11]: 1 to 64 µg/mL; MIC Range [9, 12]: 1 to 128 µg/mL
4 | CC[C@H]1OC(=O)[C@H](C)[C@@H](O[C@H]2C[C@@](C)(OC)[C@@H](O)[C@H](C)O2)[C@H](C)[C@@H](O[C@@H]2O[C@H](C)C[C@H](N(C)C)[C@H]2O)[C@](C)(O)C[C@@H](C)C(=O)[C@H](C)[C@@H](O)[C@]1(C)O [Erythromycin, erythromycin] |  |  | 0.5 µg/mL (≈ 0.681 µM) | > 512 µg/mL | 1 µg/mL (≈ 1.36 µM) | > 512 µg/mL | 0.5 µg/mL (≈ 0.681 µM) | > 512 µg/mL | 0.5 µg/mL (≈ 0.681 µM) | 256 µg/mL (≈ 349 µM) |  |  |  |  |  |  |  | rate of resistance (S. aureus isolates): 14% and 18%
5 | CC(=O)O[C@H]1C[C@@]2(C)[C@@H](C[C@@H](O)[C@H]3[C@@]4(C)CC[C@@H](O)[C@@H](C)[C@@H]4CC[C@@]32C)/C1=C(\CCC=C(C)C)C(=O)O [Fusidic acid, fusidic acid] | 15.5% | 0.125 to 16 µg/mL | 0.125 µg/mL (≈ 0.242 µM) | 8 µg/mL (≈ 15.5 µM) | 1 µg/mL (≈ 1.94 µM) | 16 µg/mL (≈ 31 µM) | 0.125 µg/mL (≈ 0.242 µM) | 8 µg/mL (≈ 15.5 µM) | 0.125 µg/mL (≈ 0.242 µM) | 4 µg/mL (≈ 7.74 µM) |  |  |  |  | 0.312 to 32 µg/mL | 0.0625 to 32 µg/mL | 0.0312 to 32 µg/mL | S. aureus isolates resistant (S. aureus isolates): 50%
6 | CC[C@H](C)[C@H](NC(=O)[C@H](CCCCN)NC(=O)[C@H](CCC(=O)O)NC(=O)[C@H](CCCCN)NC(=O)[C@H](CO)NC(=O)[C@H](CCCCN)NC(=O)[C@H](CCCNC(=N)N)NC(=O)[C@H](Cc1ccccc1)NC(=O)[C@H](Cc1ccccc1)NC(=O)[C@H](CC(=O)O)NC(=O)CNC(=O)[C@H](CC(C)C)NC(=O)[C@@H](N)CC(C)C)C(=O)NCC(=O)N[C@@H](CCCCN)C(=O)N[C@@H](CCC(=O)O)C(=O)N[C@@H](Cc1ccccc1)C(=O)N[C@@H](CCCCN)C(=O)N[C@@H](CCCNC(=N)N)C(=O)N[C@H](C(=O)N[C@H](C(=O)N[C@@H](CCC(N)=O)C(=O)N[C@@H](CCCNC(=N)N)C(=O)N[C@H](C(=O)N[C@@H](CCCCN)C(=O)N[C@@H](CC(=O)O)C(=O)N[C@@H](Cc1ccccc1)C(=O)N[C@@H](CC(C)C)C(=O)N[C@@H](CCCNC(=N)N)C(=O)N[C@@H](CC(N)=O)C(=O)N[C@@H](CC(C)C)C(=O)N[C@H](C(=O)N1CCC[C@H]1C(=O)N[C@@H](CCCNC(=N)N)C(=O)N[C@H](C(=O)N[C@@H](CCC(=O)O)C(=O)N[C@@H](CO)C(=O)O)[C@@H](C)O)C(C)C)[C@@H](C)CC)C(C)C)[C@@H](C)CC [LL-37] |  |  |  |  |  |  |  |  |  |  | 64 µg/mL (≈ 14.2 µM) | 256 µg/mL (≈ 57 µM) | 128 µg/mL (≈ 28.5 µM) | > 512 µg/mL |  |  |  | 
7 | CCC[C@@H]1C[C@@H](C(=O)N[C@@H]([C@H]2O[C@H](SC)[C@H](O)[C@@H](O)[C@H]2O)[C@@H](C)O)N(C)C1 [Lincomycin, lincomycin] | 37.5% |  | 1 µg/mL (≈ 2.46 µM) | 64 µg/mL (≈ 157 µM) | 0.5 µg/mL (≈ 1.23 µM) | > 512 µg/mL | 1 µg/mL (≈ 2.46 µM) | 16 µg/mL (≈ 39.4 µM) | 1 µg/mL (≈ 2.46 µM) | 64 µg/mL (≈ 157 µM) |  |  |  |  |  |  |  | 
8 | CC(=O)NC[C@H]1CN(c2ccc(N3CCOCC3)c(F)c2)C(=O)O1 [Linezolid, linezolid] |  | 1 to 4 µg/mL | 1 µg/mL (≈ 2.96 µM) | 4 µg/mL (≈ 11.9 µM) | 2 µg/mL (≈ 5.93 µM) | 4 µg/mL (≈ 11.9 µM) | 1 µg/mL (≈ 2.96 µM) | 2 µg/mL (≈ 5.93 µM) | 1 µg/mL (≈ 2.96 µM) | 4 µg/mL (≈ 11.9 µM) |  |  |  |  | 0.25 to 32 µg/mL | 0.5 to 4 µg/mL | 0.25 to 4 µg/mL | Resistance of isolates, in words [1]: none of the isolates were resistant; Susceptibility of all strains, in words [2]: sensitive
9 | C/C(=C\C(=O)OCCCCCCCCC(=O)O)C[C@@H]1OC[C@H](C[C@@H]2O[C@H]2[C@@H](C)[C@H](C)O)[C@@H](O)[C@H]1O [Mupirocin, mupirocin] | 17.5% | 0.125 to 32 µg/mL | 0.5 µg/mL (≈ 0.999 µM) | > 512 µg/mL | 0.25 µg/mL (≈ 0.499 µM) | 32 µg/mL (≈ 63.9 µM) | 0.5 µg/mL (≈ 0.999 µM) | > 512 µg/mL | 0.25 µg/mL (≈ 0.499 µM) | 512 µg/mL (≈ 1020 µM) |  |  |  |  |  |  |  | Susceptibility of all strains, in words [2]: sensitive
10 | CC[C@H](C)[C@H](NC(=O)CNC(=O)[C@H](CO)NC(=O)[C@H](CC(C)C)NC(=O)[C@@H](NC(=O)[C@H](CCCNC(=N)N)NC(=O)CNC(=O)[C@@H](NC(=O)[C@H](CC(C)C)NC(=O)[C@@H]1CCCN1C(=O)[C@H](CC(C)C)NC(=O)[C@@H](N)Cc1ccccc1)[C@@H](C)CC)C(C)C)C(=O)N[C@@H](CC(C)C)C(N)=O [Temporin A] (H-FLPLIGRVLSGIL-NH2) |  |  |  |  |  |  |  |  |  |  | 8 µg/mL (≈ 5.73 µM) | 16 µg/mL (≈ 11.5 µM) | 8 µg/mL (≈ 5.73 µM) | 32 µg/mL (≈ 22.9 µM) |  |  |  | MIC Range [8, 11]: 2 to 64 µg/mL; MIC Range [9, 12]: 4 to 32 µg/mL
11 | CN(C)[C@@H]1C(O)=C(C(N)=O)C(=O)[C@@]2(O)C(O)=C3C(=O)c4c(O)cccc4[C@@](C)(O)[C@H]3C[C@@H]12 [Tetracycline, tetracycline] | 15.5% | 0.125 to 32 µg/mL | 0.5 µg/mL (≈ 1.13 µM) | 32 µg/mL (≈ 72 µM) | 0.5 µg/mL (≈ 1.13 µM) | 32 µg/mL (≈ 72 µM) | 0.25 µg/mL (≈ 0.563 µM) | 32 µg/mL (≈ 72 µM) | 0.5 µg/mL (≈ 1.13 µM) | 32 µg/mL (≈ 72 µM) |  |  |  |  | 0.125 to 64 µg/mL | 0.0625 to 32 µg/mL | 0.0625 to 32 µg/mL | 
12 | CN[C@H](CC(C)C)C(=O)N[C@H]1C(=O)N[C@@H](CC(N)=O)C(=O)N[C@H]2C(=O)N[C@H]3C(=O)N[C@H](C(=O)N[C@H](C(=O)O)c4cc(O)cc(O)c4-c4cc3ccc4O)[C@H](O)c3ccc(c(Cl)c3)Oc3cc2cc(c3O[C@@H]2O[C@H](CO)[C@@H](O)[C@H](O)[C@H]2O[C@H]2C[C@](C)(N)[C@H](O)[C@H](C)O2)Oc2ccc(cc2Cl)[C@H]1O [Vancomycin, vancomycin] |  | 0.25 to 1 µg/mL | 0.5 µg/mL (≈ 0.345 µM) | 2 µg/mL (≈ 1.38 µM) | 1 µg/mL (≈ 0.69 µM) | 1 µg/mL (≈ 0.69 µM) | 0.5 µg/mL (≈ 0.345 µM) | 1 µg/mL (≈ 0.69 µM) | 1 µg/mL (≈ 0.69 µM) | 2 µg/mL (≈ 1.38 µM) |  |  |  |  | 0.125 to 8 µg/mL | 0.125 to 2 µg/mL | 0.125 to 2 µg/mL | Resistance of isolates, in words [1]: none of the isolates were resistant; Susceptibility of all strains, in words [2]: sensitive
